Test results published in paper PMC3513622 (Antiviral research, 2012).
Like-named read-outs stand apart in the source and are kept apart here.

How the values were obtained:
Epstein-Barr virus (EBV) [1] = conditions: for IC50: IgG induction, 0.0005-30μM, EBV genomes by qPCR
EBV early protein EA-D = conditions: for EA-D expression (immunoblot) / level of hyperphosphorylated form of EA-D (top band): 24 hours after induction; for viral reactivation assessed by expression of EA-D, in words: concentration not stated at the place (Fig. 2: 1 and 10μM)
in vitro = conditions: human
Akata cells [2] = tested on: Akata cells
[3] = target: T1, EBV-encoded protein kinase (EBV-PK, BGLF4) (Epstein-Barr virus, UniProt P13288); test: In vitro kinase assay of GST-BGLF4; assay type: biochemical; conditions: 10μM inhibitor, MBP substrate, 50μM ATP, filter binding
T1 sequence (P13288 1-429): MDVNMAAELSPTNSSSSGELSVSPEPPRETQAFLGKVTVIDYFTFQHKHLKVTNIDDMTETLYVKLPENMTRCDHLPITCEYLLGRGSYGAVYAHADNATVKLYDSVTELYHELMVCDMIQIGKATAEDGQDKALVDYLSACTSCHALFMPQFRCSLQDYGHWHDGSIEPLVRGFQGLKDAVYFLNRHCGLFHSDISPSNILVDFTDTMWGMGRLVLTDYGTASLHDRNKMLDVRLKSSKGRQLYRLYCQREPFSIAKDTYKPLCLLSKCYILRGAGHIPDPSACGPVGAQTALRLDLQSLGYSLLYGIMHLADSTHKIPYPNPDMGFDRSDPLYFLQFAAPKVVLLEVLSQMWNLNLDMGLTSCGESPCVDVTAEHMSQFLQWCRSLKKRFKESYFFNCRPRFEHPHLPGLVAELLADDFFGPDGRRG

[4] = Cell viability of Akata cells, modified MTS assay; conditions: human, latently EBV-infected Akata cells
Epstein-Barr virus (EBV) [5] = test: microbe, parasite or virus in culture; conditions: human gammaherpesvirus 4, Akata, 48 h
purified EBV-PK = conditions: ref Gershburg et al., 2004; Marschall et al., 2002; cited from earlier work
[6] = tested on: human cytomegalovirus (HCMV) pUL97 protein kinase; conditions: 2002, cited from earlier work
EBV = conditions: ref Gershburg et al., 2004; Wang et al., 2009; Zacny et al., 1999; cited from earlier work
Akata cells [7] = test: Cell viability of Akata cells, modified MTS assay; conditions: Akata cells, 48 hours, 0.0005-30μM, modified MTS assay
[8] = 10μM PKI, Akata cells, 48 hours after IgG induction

Nc1ncnc2c1c(I)cn2[C@@H]1O[C@H](CO)[C@@H](O)[C@H]1O [5-Iodotubercidin]
effect on EBV replication in words (Epstein-Barr virus (EBV) [1]; [8]): effective in inhibiting the EBV replication | IC50 (Epstein-Barr virus (EBV) [1]; Akata cells, 48 hours): 890 nM | EA-D expression (immunoblot) (EBV early protein EA-D; 1μM PKI, Fig. 2B): did not affect the expression of EA-D

Nc1nc2c(ncn2COCCO)c(=O)[nH]1 [ACV, acyclovir]
reduction of viral replication relative to DMSO treatment (Epstein-Barr virus (EBV) [1]; 50μM ACV, Akata cells, 48 hours after IgG induction): 88±6% | viability at 48 h, 50 μM (in vitro): 89 ± 4%

Cc1ccc(S(=O)(=O)/C=C/C#N)cc1 [BAY 11-7082]
effect on EBV replication in words (Epstein-Barr virus (EBV) [1]; 10μM PKI, Akata cells, 48 hours after IgG induction, listed as BAY-11-7082): effective in inhibiting the EBV replication | effect on EBV replication in words (Epstein-Barr virus (EBV) [1]; 10μM PKI, Akata cells, 48 hours after IgG induction, listed as Bay 11-7082): inhibited viral replication | IC50 (Epstein-Barr virus (EBV) [1]; Akata cells, 48 hours): 208 nM | EA-D expression (immunoblot) (EBV early protein EA-D; 1μM PKI, Fig. 2B): intermediate | level of hyperphosphorylated form of EA-D (top band) (EBV early protein EA-D; 1μM PKI, Fig. 2B): more pronounced effect on the levels of the hyperphosphorylated form of EA-D | expression levels of housekeeping genes (β-actin) (EBV early protein EA-D; 10μM, Fig. 2A): loss of β-actin | CC50 (Akata cells [2]): 2640 nM

COC(=O)/C=C/c1cc(O)ccc1O [Erbstatin analog]
effect on EBV replication in words (Epstein-Barr virus (EBV) [1]; [8]): inhibited EBV replication in cells | IC50 (Epstein-Barr virus (EBV) [1]; Akata cells, 48 hours): 2370 nM | EA-D expression (immunoblot) (EBV early protein EA-D; 1μM PKI, Fig. 2B): did not affect the expression of EA-D | viral reactivation assessed by expression of EA-D, in words (EBV early protein EA-D): did not inhibit viral reactivation

COC(=O)[C@@]1(O)C[C@H]2O[C@]1(C)n1c3ccccc3c3c4c(c5c6ccccc6n2c5c31)C(=O)NC4 [K252A]
TI (therapeutic index, CC50/IC50 ratio) (Epstein-Barr virus (EBV) [1]): 6 | inhibition of EBV replication relative to DMSO treatment (Epstein-Barr virus (EBV) [1]; 10μM PKI, Akata cells, 48 hours after IgG induction, mean ± sem of 3 experiments): 92±6% | IC50 (Epstein-Barr virus (EBV) [1]; Akata cells, 48 hours): 14 nM | EA-D expression (immunoblot) (EBV early protein EA-D; 1μM PKI, Fig. 2B): no EA-D expression was detected | viral reactivation assessed by expression of EA-D, in words (EBV early protein EA-D): block expression of EBV early protein EA-D | CC50 (Akata cells [2]): 80 nM | inhibition of GST/EBV-PK activity relative to DMSO [3]: about 75%

O=C1Cc2c([nH]c3ccc(Br)cc23)-c2ccccc2N1 [Kenpaullone]
CC50 at 48 h [4]: 5130 nM | TI (therapeutic index, CC50/IC50 ratio) (Epstein-Barr virus (EBV) [1]): 8 | effect on EBV replication in words (Epstein-Barr virus (EBV) [1]; [8]): effective in inhibiting the EBV replication | IC50 (Epstein-Barr virus (EBV) [5]): 681 nM | EA-D expression (immunoblot) (EBV early protein EA-D; 1μM PKI, Fig. 2B): did not affect the expression of EA-D

O=c1cc(N2CCOCC2)oc2c(-c3ccccc3)cccc12 [LY 294002]
TI (therapeutic index, CC50/IC50 ratio) (Epstein-Barr virus (EBV) [1]): 3 | IC50 (Epstein-Barr virus (EBV) [5]): 1840 nM | EA-D expression (immunoblot) (EBV early protein EA-D; 1μM PKI, Fig. 2B): intermediate | level of hyperphosphorylated form of EA-D (top band) (EBV early protein EA-D; 1μM PKI, Fig. 2B): more pronounced effect on the levels of the hyperphosphorylated form of EA-D | CC50 (in vitro): 6160 nM

CC(C)Nc1nc2cc(Cl)c(Cl)cc2n1[C@H]1O[C@@H](CO)[C@H](O)[C@@H]1O [MBV, maribavir]
effect on activity of purified EBV-PK (purified EBV-PK): did not inhibit | concentration inhibiting pUL97 autophosphorylation activity ([6]; ref Biron et al., Hamirally et al., 2009): 1 μM | effect on EBV replication (EBV): inhibits EBV replication

N#CCCn1c2ccccc2c2c3c(c4c5ccccc5[nH]c4c21)C(=O)NC3 [NGIC-I, non-glycosidic indolocarbazole I]
effect on activity of purified EBV-PK (purified EBV-PK): did not inhibit | concentration inhibiting pUL97 autophosphorylation activity ([6]; ref Marschall et al.): 0.5 μM

CO[C@@H]1[C@H](N(C)C(=O)c2ccccc2)C[C@H]2O[C@]1(C)n1c3ccccc3c3c4c(c5c6ccccc6n2c5c31)C(=O)NC4 [PKC-412]
effect on EBV replication in words (Epstein-Barr virus (EBV) [1]; 10μM PKI, Akata cells, 48 hours after IgG induction, listed as PKC412): effective in inhibiting the EBV replication | IC50 (Epstein-Barr virus (EBV) [5]): 31 nM | EA-D expression (immunoblot) (EBV early protein EA-D; 1μM PKI, Fig. 2B): no EA-D expression was detected | viral reactivation assessed by expression of EA-D, in words (EBV early protein EA-D): block expression of EBV early protein EA-D | CC50 at 48 h (in vitro): 56 nM

Cn1cc(C2=C(c3cn(CCCSC(=N)N)c4ccccc34)C(=O)NC2=O)c2ccccc21 [Ro 31-8220]
CC50 (Akata cells [7]): 1150 nM | effect on EBV replication in words (Epstein-Barr virus (EBV) [1]; [8]): effective in inhibiting the EBV replication | TI (therapeutic index, CC50/IC50 ratio) (Epstein-Barr virus (EBV) [1]; Akata cells, 48 hours): 3 | IC50 (Epstein-Barr virus (EBV) [1]; Akata cells, 48 hours): 398 nM | EA-D expression (immunoblot) (EBV early protein EA-D; 1μM PKI, Fig. 2B): did not affect the expression of EA-D | level of hyperphosphorylated form of EA-D (top band) (EBV early protein EA-D; 1μM PKI, Fig. 2B): increased level of this form

CC(=O)c1c(O)c(C)c(O)c(Cc2c(O)c3c(c(C(=O)/C=C/c4ccccc4)c2O)OC(C)(C)C=C3)c1O [Rottlerin]
effect on EBV replication in words (Epstein-Barr virus (EBV) [1]; [8]): effective in inhibiting the EBV replication | TI (therapeutic index, CC50/IC50 ratio) (Epstein-Barr virus (EBV) [1]; Akata cells, 48 hours): 1 | IC50 (Epstein-Barr virus (EBV) [5]): 983 nM | EA-D expression (immunoblot) (EBV early protein EA-D; 1μM PKI, Fig. 2B): did not affect the expression of EA-D | CC50 at 48 h (in vitro): 1000 nM

CN[C@@H]1C[C@H]2O[C@@](C)([C@@H]1OC)n1c3ccccc3c3c4c(c5c6ccccc6n2c5c31)C(=O)NC4 [Staurosporine]
effect on EBV replication in words (Epstein-Barr virus (EBV) [1]; [8]): inhibited viral replication | effect on EBV replication in words (Epstein-Barr virus (EBV) [1]; 10μM PKI, Akata cells, 48 hours after IgG induction, listed as Staurosporin): significantly reduced the EBV genome copy numbers | viral reactivation assessed by expression of EA-D, in words (EBV early protein EA-D): block expression of EBV early protein EA-D | CC50 (in vitro): 4 nM

CC(C)(C)c1cc(C=C(C#N)C#N)cc(C(C)(C)C)c1O [Tyrphostin 9]
CC50 (Akata cells [7]): 573 nM | TI (therapeutic index, CC50/IC50 ratio) (Epstein-Barr virus (EBV) [1]; Akata cells, 48 hours): 3 | IC50 (Epstein-Barr virus (EBV) [1]; Akata cells, 48 hours): 217 nM | EA-D expression (immunoblot) (EBV early protein EA-D; 1μM PKI, Fig. 2B): did not affect the expression of EA-D

N#CC(=C(/N)Sc1ccccc1N)/C(C#N)=C(/N)Sc1ccccc1N [U-0126]
TI (therapeutic index, CC50/IC50 ratio) (Epstein-Barr virus (EBV) [1]): 13 | effect on EBV replication in words (Epstein-Barr virus (EBV) [1]; [8]): effective in inhibiting the EBV replication | IC50 (Epstein-Barr virus (EBV) [1]; Akata cells, 48 hours): 552 nM | EA-D expression (immunoblot) (EBV early protein EA-D; 1μM PKI, Fig. 2B): did not affect the expression of EA-D | EA-D expression (immunoblot) (EBV early protein EA-D; 10μM PKI, Fig. 2A): remain relatively high | viral reactivation assessed by expression of EA-D, in words (EBV early protein EA-D): did not inhibit viral reactivation | CC50 (Akata cells [2]): 7380 nM

COC[C@H]1OC(=O)c2coc3c2[C@@]1(C)C1=C(C3=O)[C@@H]2CCC(=O)[C@@]2(C)C[C@H]1OC(C)=O [Wortmannin]
TI (therapeutic index, CC50/IC50 ratio) (Epstein-Barr virus (EBV) [1]): 13 | effect on EBV replication in words (Epstein-Barr virus (EBV) [1]; [8]): effective in inhibiting the EBV replication | IC50 (Epstein-Barr virus (EBV) [5]): 367 nM | EA-D expression (immunoblot) (EBV early protein EA-D; 1μM PKI, Fig. 2B): no EA-D expression was detected | viral reactivation assessed by expression of EA-D, in words (EBV early protein EA-D): inhibited EA-D expression | CC50 at 48 h (in vitro): 4690 nM

O=c1c(O)c(-c2ccc(O)c(O)c2)oc2cc(O)cc(O)c12 [quercetin]
effect on EBV replication in words (Epstein-Barr virus (EBV) [1]; [8]): lack of activity
